Results on 7 compounds are retold here after ChEMBL document CHEMBL1140242, “Metabolism investigation leading to novel drug design: orally active prostacyclin mimetics. Part 4” (Bioorg Med Chem Lett, 2005).

For one data set, the species on record is Homo sapiens. As to the kind of experiment: Inhibition of ADP-induced aggregation of human platelets. The class given is functional, organism-based.
The nature of data set [1]: Area Under Plasma concentration-time curve after peroral administration at a dose of 0.32 (mg/kg) in rat. The class given is ADME, organism-based. To be noted: po.
Data set [2] is filed under the species Rattus norvegicus. As to the kind of experiment: Inhibition of ADP-induced aggregation of rat platelets. In kind it is functional, organism-based.
Data set [3] concerns Rattus norvegicus. Put plainly: Effective dose for in vivo activity in D-GalN/LPS-induced rat hepatic injury model. The class given is functional.
Data set [4] in a line: Maximum (Peak) plasma drug concentration after single-dose administration at a dose of 0.32 (mg/kg) in rat. The class given is ADME, organism-based. Further details: dose 0.32 mg/kg.
The nature of data set [5]: Elimination half-life after peroral administration at a dose of 0.32 (mg/kg) in rat. To be noted: in vivo, po. The class given is ADME, organism-based.
A further data set addresses Prostacyclin receptor (Homo sapiens, UniProt P43119). As to the kind of experiment: Inhibition of [3H]-Iloprost binding to human Prostanoid IP receptor.
The nature of data set [6]: Total body clearance of drug from the plasma after i.v. administration at a dose of 0.32 (mg/kg) in rat. In kind it is ADME, organism-based. Conditions: iv, read-out: CLtot.
Data set [7] is described as follows: Bioavailability of the drug after […] administration at a dose of 0.32 (mg/kg) in rat. Conditions: in vivo, iv, read-out: Ba. In kind it is ADME, organism-based.
Data set [8] concerns the target T1, Prostaglandin D2 receptor (Homo sapiens, UniProt Q13258).
T1 sequence (Q13258 whole entry): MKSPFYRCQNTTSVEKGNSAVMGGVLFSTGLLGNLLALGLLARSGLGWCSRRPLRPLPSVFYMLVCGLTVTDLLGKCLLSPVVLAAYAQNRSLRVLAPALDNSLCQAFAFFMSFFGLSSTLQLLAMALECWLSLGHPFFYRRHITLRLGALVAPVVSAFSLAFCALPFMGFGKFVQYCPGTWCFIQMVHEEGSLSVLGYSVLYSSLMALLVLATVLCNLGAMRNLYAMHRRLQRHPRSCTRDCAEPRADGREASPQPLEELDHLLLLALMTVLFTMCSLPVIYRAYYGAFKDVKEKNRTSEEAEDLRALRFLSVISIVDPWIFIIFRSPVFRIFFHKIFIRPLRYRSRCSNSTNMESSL
As to the kind of experiment: Inhibition of [3H]PGD-2 binding to human Prostanoid DP receptor.

Data set [9] concerns the target Prostaglandin F2-alpha receptor (Homo sapiens, UniProt P43088). Put plainly: Inhibition of [3H]-PGF-2 binding to human Prostanoid FP receptor.
Data set [10] deals with T2, Prostaglandin E2 receptor EP1 subtype (Homo sapiens, UniProt P34995).
T2 sequence (P34995 whole entry): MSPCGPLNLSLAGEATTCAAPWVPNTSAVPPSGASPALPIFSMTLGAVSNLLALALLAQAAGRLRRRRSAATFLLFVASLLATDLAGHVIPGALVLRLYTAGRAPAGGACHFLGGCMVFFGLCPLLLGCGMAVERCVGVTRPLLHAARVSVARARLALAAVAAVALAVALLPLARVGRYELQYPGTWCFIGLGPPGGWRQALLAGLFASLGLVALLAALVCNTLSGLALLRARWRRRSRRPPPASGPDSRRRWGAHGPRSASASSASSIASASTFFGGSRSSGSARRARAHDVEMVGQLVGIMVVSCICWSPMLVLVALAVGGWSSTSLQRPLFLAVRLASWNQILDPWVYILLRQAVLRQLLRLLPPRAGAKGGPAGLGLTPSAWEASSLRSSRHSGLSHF
Put plainly: Inhibition of [3H]PGE-2 binding to Prostanoid EP1 receptor.

The target in data set [11] is Prostaglandin E2 receptor EP2 subtype (Homo sapiens, UniProt P43116). Put plainly: Inhibition of [3H]PGE-2 binding to Prostanoid EP2 receptor.
Prostaglandin E2 receptor EP2 subtype, sequence (P43116 whole entry): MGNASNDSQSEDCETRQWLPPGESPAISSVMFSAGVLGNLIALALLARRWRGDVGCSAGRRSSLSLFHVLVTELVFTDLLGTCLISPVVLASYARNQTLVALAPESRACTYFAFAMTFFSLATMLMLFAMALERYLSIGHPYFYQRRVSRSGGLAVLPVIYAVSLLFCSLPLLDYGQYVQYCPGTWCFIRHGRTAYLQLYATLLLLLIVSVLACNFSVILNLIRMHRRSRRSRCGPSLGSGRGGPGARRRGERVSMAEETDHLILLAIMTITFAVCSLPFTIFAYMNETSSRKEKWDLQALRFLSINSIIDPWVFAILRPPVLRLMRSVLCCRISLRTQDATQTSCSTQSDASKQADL
In data set [12] the target is T3, Prostaglandin E2 receptor EP3 subtype (Homo sapiens, UniProt P43115).
T3 sequence (P43115 whole entry): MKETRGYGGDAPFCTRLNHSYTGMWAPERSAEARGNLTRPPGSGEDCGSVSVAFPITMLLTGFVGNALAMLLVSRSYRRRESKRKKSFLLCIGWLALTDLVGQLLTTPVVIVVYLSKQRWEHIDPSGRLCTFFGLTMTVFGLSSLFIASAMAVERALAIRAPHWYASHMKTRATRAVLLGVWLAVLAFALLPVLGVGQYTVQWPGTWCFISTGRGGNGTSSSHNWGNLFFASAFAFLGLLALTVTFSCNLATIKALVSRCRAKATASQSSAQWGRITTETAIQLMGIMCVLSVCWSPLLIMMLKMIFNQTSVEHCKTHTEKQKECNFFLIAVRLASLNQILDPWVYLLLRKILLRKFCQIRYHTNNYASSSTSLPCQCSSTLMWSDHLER
As to the kind of experiment: Inhibition of [3H]-PGE-2 binding to Prostanoid EP3 receptor.

Data set [13] deals with Prostaglandin E2 receptor EP4 subtype (Homo sapiens, UniProt P35408). Put plainly: Inhibition of [3H]PGE-2 binding to Prostanoid EP4 receptor.
Prostaglandin E2 receptor EP4 subtype, sequence (P35408 whole entry): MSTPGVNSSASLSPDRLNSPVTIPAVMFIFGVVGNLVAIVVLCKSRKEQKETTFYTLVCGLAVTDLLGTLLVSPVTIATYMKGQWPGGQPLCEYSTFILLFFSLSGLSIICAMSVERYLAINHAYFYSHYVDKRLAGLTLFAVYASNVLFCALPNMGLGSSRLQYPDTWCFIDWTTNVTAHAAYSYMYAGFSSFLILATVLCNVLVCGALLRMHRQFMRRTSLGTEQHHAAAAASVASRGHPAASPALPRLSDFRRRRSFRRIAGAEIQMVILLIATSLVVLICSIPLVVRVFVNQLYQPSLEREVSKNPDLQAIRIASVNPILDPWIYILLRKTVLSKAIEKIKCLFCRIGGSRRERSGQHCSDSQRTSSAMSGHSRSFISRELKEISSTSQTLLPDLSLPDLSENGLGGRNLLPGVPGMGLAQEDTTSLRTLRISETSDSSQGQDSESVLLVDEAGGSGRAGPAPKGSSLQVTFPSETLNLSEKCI
The species entered for another data set is Canis familiaris. As to the kind of experiment: Inhibition of ADP-induced aggregation of dog platelets. In kind it is functional. To be noted: Canis lupus familiaris.
Data set [14] is described as follows: Inhibition of ADP-induced aggregation of monkey platelets. Conditions: Cercopithecidae. In kind it is functional.
Data set [15] in a line: Maximum (Peak) plasma drug concentration after single-dose administration at a dose of 1 (mg/kg) in rat. The class given is ADME, organism-based. Also noted: dose 1 mg/kg.
Another data set addresses T4, Thromboxane A2 receptor (Homo sapiens, UniProt P21731).
T4 sequence (P21731 whole entry): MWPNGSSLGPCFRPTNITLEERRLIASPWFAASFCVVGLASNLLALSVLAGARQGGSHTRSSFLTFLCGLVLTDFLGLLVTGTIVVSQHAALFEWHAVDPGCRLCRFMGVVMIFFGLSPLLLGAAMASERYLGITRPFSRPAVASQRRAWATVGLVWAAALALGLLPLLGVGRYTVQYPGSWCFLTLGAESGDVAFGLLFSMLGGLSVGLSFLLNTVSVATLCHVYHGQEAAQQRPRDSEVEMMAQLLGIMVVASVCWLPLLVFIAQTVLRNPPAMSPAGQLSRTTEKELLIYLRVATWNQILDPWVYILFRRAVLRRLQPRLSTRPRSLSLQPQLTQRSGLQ
As to the kind of experiment: Inhibition of [3H]SQ-29,548 binding to human Prostanoid TP receptor.

Data set [16] is described as follows: Area Under Plasma concentration-time curve after peroral administration at a dose of 1 (mg/kg) in rat. In kind it is ADME, organism-based. To be noted: po.
A short description of data set [17]: Total body clearance of drug from the plasma after i.v. administration at a dose of 1 (mg/kg) in rat. The class given is ADME, organism-based. Conditions: iv, read-out: CLtot.
The nature of data set [18]: Bioavailability of the drug after […] administration at a dose of 1 (mg/kg) in rat. In kind it is ADME, organism-based. Conditions: in vivo, iv, read-out: Ba.

Prostacyclin receptor, sequence (P43119 whole entry): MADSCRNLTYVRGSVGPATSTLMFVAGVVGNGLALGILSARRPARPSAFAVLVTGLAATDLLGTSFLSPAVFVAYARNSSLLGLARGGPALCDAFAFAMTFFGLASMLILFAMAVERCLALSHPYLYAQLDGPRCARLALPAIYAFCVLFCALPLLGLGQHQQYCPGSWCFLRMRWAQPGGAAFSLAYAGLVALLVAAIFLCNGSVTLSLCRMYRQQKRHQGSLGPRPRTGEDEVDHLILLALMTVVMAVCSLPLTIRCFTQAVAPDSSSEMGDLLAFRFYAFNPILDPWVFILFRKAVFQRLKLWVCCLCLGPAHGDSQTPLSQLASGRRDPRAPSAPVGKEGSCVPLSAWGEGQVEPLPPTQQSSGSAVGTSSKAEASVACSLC
Prostaglandin F2-alpha receptor, sequence (P43088 whole entry): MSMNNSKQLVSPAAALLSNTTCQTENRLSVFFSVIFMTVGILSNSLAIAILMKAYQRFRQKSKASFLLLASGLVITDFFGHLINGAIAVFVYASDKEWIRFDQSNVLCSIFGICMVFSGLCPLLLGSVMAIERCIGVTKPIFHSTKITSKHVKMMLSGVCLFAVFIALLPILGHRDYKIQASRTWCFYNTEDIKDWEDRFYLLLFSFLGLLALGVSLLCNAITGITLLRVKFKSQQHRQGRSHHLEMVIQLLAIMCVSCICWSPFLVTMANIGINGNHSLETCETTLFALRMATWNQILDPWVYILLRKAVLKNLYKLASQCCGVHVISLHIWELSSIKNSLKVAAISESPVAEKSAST

Regarding `O=C(O)COc1cccc(C[C@@H]2CCC[C@H]3O[C@@]23c2nc(-c3ccccc3)c(-c3ccccc3)o2)c1`, 12 nM corresponded to half-maximal inhibition in the data set listed under Homo sapiens (IC50).

Regarding `O=C([O-])COc1cccc(C[C@@H]2CCC=C2c2nc(-c3ccccc3)c(-c3ccccc3)o2)c1.[Na+]`, the AUC – broadly, concentration integrated over time – in data set [1] came out at 42.5 ng·h/mL. Further, the 50% inhibitory concentration (IC50) (usually the concentration that gives 50% inhibition) in the data set listed under Rattus norvegicus [2] was determined as 2800 nM; in the data set filed under Homo sapiens it was 56 nM. Further, the ED50 (usually the dose that gives a 50% effect, or the effect in half of the subjects) in the data set on Rattus norvegicus [3] turned out to be 1 mg/kg. Besides, the highest concentration (Cmax) (commonly the maximum level reached in the sampled fluid or tissue) in [4] is 45.2 ng/mL. In data set [5], the half-life – broadly, the time in which the quantity being followed falls by half – is 17 h. For the same compound, the Ki (usually a dissociation constant, usually derived from enzyme kinetics or from competition with a known ligand) at Prostacyclin receptor came out at 41 nM. The clearance in [6] turned out to be 9.19 mL/min/kg. The bioavailability in data set [7] amounted to 78%.

For the compound `O=C(O)COc1cccc(C[C@@H]2CCC=CC2(O)c2nc(-c3ccccc3)c(-c3ccccc3)o2)c1` (stereo not given in full), the IC50 in the data set listed under Homo sapiens came out at 98 nM.

Compound `O=C(O)COc1cccc(C[C@@H]2CCCC3OC32c2nc(-c3ccccc3)c(-c3ccccc3)o2)c1` (stereo not given in full) came in with an IC50 in the data set listed under Homo sapiens of 14 nM.

In the data set filed under Homo sapiens, `O=C(O)COc1cccc(C[C@@H]2CCCC(O)=C2c2nc(-c3ccccc3)c(-c3ccccc3)o2)c1` registered an IC50 of 116 nM.

With `O=C([O-])COc1cccc(C[C@@H]2CCC[C@@H]3O[C@]23c2nc(-c3ccccc3)c(-c3ccccc3)o2)c1.[Na+]`, the Ki in data set [8] was 2900 nM; in data set [9], over 10000 nM; in data set [10], over 10000 nM; in data set [11], 1400 nM; in data set [12] it was 3200 nM; in [13] it was 7200 nM. Also, the Ki stood at 6.1 nM on Prostacyclin receptor and 930 nM on Thromboxane A2 receptor. For the same compound, the IC50 in the data set listed under Canis familiaris is 1470 nM; in the data set listed under Rattus norvegicus [2], 300 nM; in the data set listed under Homo sapiens it was 5.8 nM; in data set [14] it was 12 nM. The compound also had a Cmax in [15] of 67.9 ng/mL. This compound showed a half-life in data set [5] of 26.9 h. Also, in data set [16], the AUC came to 168 ng·h/mL. For the same compound, the clearance in [17] amounted to 18.6 mL/min/kg. Moreover, the bioavailability in [18] came to 20%.

The compound `O=C([O-])COc1cccc(C[C@@H]2CCCC=C2c2nc(-c3ccccc3)c(-c3ccccc3)o2)c1.[Na+]` showed an IC50 in data set [14] of 188 nM. The ED50 in the data set on Rattus norvegicus [3] came to 0.032 mg/kg. This compound gave a Cmax in data set [4] of 16.4 ng/mL. This compound showed a half-life in [5] of 6.6 h. Further, the bioavailability in data set [7] amounted to 50%.
